Experimental data published in ChEMBL document CHEMBL5537130, “Structure-based design of potent FABP4 inhibitors with high selectivity against FABP3” (Eur J Med Chem, 2024).

Key:
[1] = in vitro; conditions: human, liver microsomes
Description: Metabolic stability in human liver microsomes assessed as half life at 1 uM preincubated with compound for 10 mins followed by NADPH addition and measured upto 60 mins by LC-MS/MS analysis

[2] = in vitro; conditions: mouse, liver microsomes
Description: Metabolic stability in mouse liver microsomes assessed as half life at 1 uM preincubated with compound for 10 mins followed by NADPH addition and measured upto 60 mins by LC-MS/MS analysis

[3] = in vitro; conditions: human, liver microsomes; remark: listed apart in the source
Description: Metabolic stability in human liver microsomes assessed as metabolic bioavailability at 1 uM preincubated with compound for 10 mins followed by NADPH addition and measured upto 60 mins by LC-MS/MS analysis

[4] = in vitro; conditions: mouse, liver microsomes; remark: listed apart in the source
Description: Metabolic stability in mouse liver microsomes assessed as metabolic bioavailability at 1 uM preincubated with compound for 10 mins followed by NADPH addition and measured upto 60 mins by LC-MS/MS analysis

[5] = target: Fatty acid-binding protein, heart (Homo sapiens, UniProt P05413)
Chain of Fatty acid-binding protein, heart (P05413 whole entry): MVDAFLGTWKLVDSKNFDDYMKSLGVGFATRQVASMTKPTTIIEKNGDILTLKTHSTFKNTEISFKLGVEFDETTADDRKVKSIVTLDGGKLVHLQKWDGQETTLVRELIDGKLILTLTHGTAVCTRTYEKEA
Description: Displacement of 1,8-ANS from N-terminal 6His-tagged full length FABP3 (unknown origin) expressed in Escherichia coli ER2566 assessed as inhibition constant preincubated with compound for 10 mins followed by 1,8-ANS addition and measured after 3 mins by fluorescence based analysis

[6] = target: Fatty acid-binding protein, adipocyte (Homo sapiens, UniProt P15090)
Chain of Fatty acid-binding protein, adipocyte (P15090 whole entry): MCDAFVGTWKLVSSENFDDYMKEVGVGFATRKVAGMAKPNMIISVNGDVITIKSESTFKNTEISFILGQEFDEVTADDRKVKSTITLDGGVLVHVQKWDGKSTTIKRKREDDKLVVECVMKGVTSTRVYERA
Description: Displacement of 1,8-ANS from N-terminal 6His-tagged full length FABP4 (unknown origin) expressed in Escherichia coli ER2566 assessed as inhibition constant preincubated with compound for 10 mins followed by 1,8-ANS addition and measured after 3 mins by fluorescence based analysis

[7] = test system: FABP3 versus FABP4; test: in vitro; conditions: probe 1,8-ANS
Description: Selectivity index, ratio of Ki for displacement of 1,8-ANS from N-terminal 6His-tagged full length FABP3 (unknown origin) expressed in Escherichia coli ER2566 to Ki for displacement of 1,8-ANS from N-terminal 6His-tagged full length FABP4 (unknown origin) expressed in Escherichia coli ER2566

Row | Ki [5] [µM] | SMILES | other results
1 | – | O=C(O)c1ccccc1Nc1cccc(Cl)c1-c1ccccc1 | half-life at 1 h, 1 µM [1]: 33.5 min; half-life at 1 h, 1 µM [2]: 31.4 min; Fh at 1 h, 1 µM [3]: 24%; Fh at 1 h, 1 µM [4]: 39.9%
2 | 15 | Cc1cccc(Nc2cccc(Cl)c2-c2ccccc2)c1C(=O)O | –
3 | 7.46 | Cc1ccc(Nc2cccc(Cl)c2-c2ccccc2)c(C(=O)O)c1 | –
4 | 5.18 | O=C(O)c1c(Cl)cccc1Nc1cccc(Cl)c1-c1ccccc1 | –
5 | 0.37 | O=C(O)c1cc(F)ccc1Nc1cccc(Cl)c1-c1ccccc1 | –
6 | 2.19 | COc1ccc(Nc2cccc(Cl)c2-c2ccccc2)c(C(=O)O)c1 | Ki [6]: 0.359 µM; selectivity ratio [7]: 6
7 | 1.29 | O=C(O)c1cc(Cl)ccc1Nc1cccc(Cl)c1-c1ccccc1 | –
8 | 15.4 | Cc1cccc(Nc2cccc(Cl)c2-c2ccc3c(c2)CCO3)c1C(=O)O | –
9 | 4 | Cc1c(F)ccc(Nc2cccc(Cl)c2-c2ccccc2)c1C(=O)O | –
10 | > 5 | COc1cccc(Nc2cccc(Cl)c2-c2ccccc2)c1C(=O)O | –
11 | 7.51 | Cc1c(F)ccc(Nc2cccc(Cl)c2-c2ccc3c(c2)CCO3)c1C(=O)O | –
